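Tested at 5 concentrations; 48 h exposure; 96-well plates; endpoints linearly interpolated, else capped at highest concentration. Here, GI50 denotes the concentration required for 50% inhibition of growth. TGI denotes the concentration required for complete inhibition of growth.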
Experiments:
Experiment in all cases: NCI tumour cell line growth inhibition, 48 h
NCI-H226 lung = tested on: NCI-H226 lung
CAKI-1 renal = tested on: CAKI-1 renal
OVCAR-8 ovarian = tested on: OVCAR-8 ovarian
EKVX NSCLC = tested on: EKVX NSCLC
HT29 colon = tested on: HT29 colon
OVCAR-4 ovarian = tested on: OVCAR-4 ovarian
CCRF-CEM leukemia = tested on: CCRF-CEM leukemia
BT-549 breast = tested on: BT-549 breast
NCI/ADR-RES ovarian = tested on: NCI/ADR-RES ovarian
HCT-116 colon = tested on: HCT-116 colon
LOX IMVI melanoma = tested on: LOX IMVI melanoma
RPMI-8226 leukemia = tested on: RPMI-8226 leukemia
SF-295 CNS = tested on: SF-295 CNS
SF-268 CNS = tested on: SF-268 CNS
A498 renal = tested on: A498 renal
SR leukemia = tested on: SR leukemia
HOP-92 NSCLC = tested on: HOP-92 NSCLC
KM12 colon = tested on: KM12 colon
ACHN renal = tested on: ACHN renal
HCT-15 colon = tested on: HCT-15 colon
PC-3 prostate = tested on: PC-3 prostate
SW-620 colon = tested on: SW-620 colon
MDA-MB-468 breast = tested on: MDA-MB-468 breast
SK-OV-3 ovarian = tested on: SK-OV-3 ovarian
HOP-62 NSCLC = tested on: HOP-62 NSCLC
M14 melanoma = tested on: M14 melanoma
T-47D breast = tested on: T-47D breast
U251 CNS = tested on: U251 CNS
OVCAR-5 ovarian = tested on: OVCAR-5 ovarian
SF-539 CNS = tested on: SF-539 CNS
786-0 renal = tested on: 786-0 renal
DU-145 prostate = tested on: DU-145 prostate
SNB-19 CNS = tested on: SNB-19 CNS
MCF7 breast = tested on: MCF7 breast
IGROV1 ovarian = tested on: IGROV1 ovarian
HCC-2998 colon = tested on: HCC-2998 colon
HL-60(TB) leukemia = tested on: HL-60(TB) leukemia
UACC-62 melanoma = tested on: UACC-62 melanoma
OVCAR-3 ovarian = tested on: OVCAR-3 ovarian
K-562 leukemia = tested on: K-562 leukemia
MOLT-4 leukemia = tested on: MOLT-4 leukemia
UACC-257 melanoma = tested on: UACC-257 melanoma
COLO 205 colon = tested on: COLO 205 colon
RXF 393 renal = tested on: RXF 393 renal
NCI-H460 lung = tested on: NCI-H460 lung
A549 NSCLC = tested on: A549 NSCLC
NCI-H522 lung = tested on: NCI-H522 lung
SN12C renal = tested on: SN12C renal
HS 578T breast = tested on: HS 578T breast
TK-10 renal = tested on: TK-10 renal
SK-MEL-28 melanoma = tested on: SK-MEL-28 melanoma
MDA-MB-435 = tested on: MDA-MB-435
MALME-3M melanoma = tested on: MALME-3M melanoma
NCI-H23 lung = tested on: NCI-H23 lung
SK-MEL-5 melanoma = tested on: SK-MEL-5 melanoma
MDA-MB-231 breast = tested on: MDA-MB-231 breast
SK-MEL-2 melanoma = tested on: SK-MEL-2 melanoma
SNB-75 CNS = tested on: SNB-75 CNS

Cc1ccc([N+](=O)[O-])c(C(=O)Nc2ccc(-c3ccc4c(c3)NC(=O)/C4=C\c3ccc[nH]3)cc2)c1
GI50 (NCI-H226 lung): 23.4 µM | TGI (NCI-H226 lung): > 100 µM | GI50 (CAKI-1 renal): > 100 µM | TGI (CAKI-1 renal): > 100 µM | GI50 (OVCAR-8 ovarian): 18.7 µM | TGI (OVCAR-8 ovarian): 39.7 µM | GI50 (EKVX NSCLC): 0.211 µM | TGI (EKVX NSCLC): > 100 µM | GI50 (HT29 colon): > 100 µM | TGI (HT29 colon): > 100 µM | GI50 (OVCAR-4 ovarian): 24.4 µM | TGI (OVCAR-4 ovarian): > 100 µM | GI50 (CCRF-CEM leukemia): > 100 µM | TGI (CCRF-CEM leukemia): > 100 µM | GI50 (BT-549 breast): 9.01 µM | TGI (BT-549 breast): 61 µM | GI50 (NCI/ADR-RES ovarian): 17 µM | TGI (NCI/ADR-RES ovarian): 38.1 µM | GI50 (HCT-116 colon): 23.2 µM | TGI (HCT-116 colon): > 100 µM | GI50 (LOX IMVI melanoma): 45.9 µM | TGI (LOX IMVI melanoma): > 100 µM | GI50 (RPMI-8226 leukemia): > 100 µM | TGI (RPMI-8226 leukemia): > 100 µM | GI50 (SF-295 CNS): 29.2 µM | TGI (SF-295 CNS): > 100 µM | GI50 (SF-268 CNS): 31.1 µM | TGI (SF-268 CNS): > 100 µM | GI50 (A498 renal): 23 µM | TGI (A498 renal): 49.8 µM | GI50 (SR leukemia): 10.4 µM | TGI (SR leukemia): > 100 µM | GI50 (HOP-92 NSCLC): 21.3 µM | TGI (HOP-92 NSCLC): 57.1 µM | GI50 (KM12 colon): > 100 µM | TGI (KM12 colon): > 100 µM | GI50 (ACHN renal): 43.6 µM | TGI (ACHN renal): > 100 µM | GI50 (HCT-15 colon): > 100 µM | TGI (HCT-15 colon): > 100 µM | GI50 (PC-3 prostate): > 100 µM | TGI (PC-3 prostate): > 100 µM | GI50 (SW-620 colon): > 100 µM | TGI (SW-620 colon): > 100 µM | GI50 (MDA-MB-468 breast): 0.267 µM | TGI (MDA-MB-468 breast): 0.943 µM | GI50 (SK-OV-3 ovarian): 23.6 µM | TGI (SK-OV-3 ovarian): 63.2 µM | GI50 (HOP-62 NSCLC): 22.2 µM | TGI (HOP-62 NSCLC): 54 µM | GI50 (M14 melanoma): > 100 µM | TGI (M14 melanoma): > 100 µM | GI50 (T-47D breast): 0.515 µM | TGI (T-47D breast): 20.9 µM | GI50 (U251 CNS): 16.4 µM | TGI (U251 CNS): 35.5 µM | GI50 (OVCAR-5 ovarian): 23.9 µM | TGI (OVCAR-5 ovarian): > 100 µM | GI50 (SF-539 CNS): 25.4 µM | TGI (SF-539 CNS): > 100 µM | GI50 (786-0 renal): 24.4 µM | TGI (786-0 renal): 68.8 µM | GI50 (DU-145 prostate): 43.8 µM | TGI (DU-145 prostate): > 100 µM | GI50 (SNB-19 CNS): 19.9 µM | TGI (SNB-19 CNS): 50.3 µM | GI50 (MCF7 breast): 0.237 µM | TGI (MCF7 breast): 17.1 µM | GI50 (IGROV1 ovarian): 17.8 µM | TGI (IGROV1 ovarian): 55 µM | GI50 (HCC-2998 colon): 60 µM | TGI (HCC-2998 colon): > 100 µM | GI50 (HL-60(TB) leukemia): > 100 µM | TGI (HL-60(TB) leukemia): > 100 µM | GI50 (UACC-62 melanoma): 90.4 µM | TGI (UACC-62 melanoma): > 100 µM | GI50 (OVCAR-3 ovarian): 27.6 µM | TGI (OVCAR-3 ovarian): 98.8 µM | GI50 (K-562 leukemia): > 100 µM | TGI (K-562 leukemia): > 100 µM | GI50 (MOLT-4 leukemia): 11.2 µM | TGI (MOLT-4 leukemia): > 100 µM | GI50 (UACC-257 melanoma): > 100 µM | TGI (UACC-257 melanoma): > 100 µM | GI50 (COLO 205 colon): 53.1 µM | TGI (COLO 205 colon): > 100 µM | GI50 (RXF 393 renal): 14.6 µM | TGI (RXF 393 renal): 30.6 µM | GI50 (NCI-H460 lung): 3.48 µM | TGI (NCI-H460 lung): > 100 µM | GI50 (A549 NSCLC): > 100 µM | TGI (A549 NSCLC): > 100 µM | GI50 (NCI-H522 lung): 17 µM | TGI (NCI-H522 lung): 45.6 µM | GI50 (SN12C renal): 55.2 µM | TGI (SN12C renal): > 100 µM | GI50 (HS 578T breast): 26.3 µM | TGI (HS 578T breast): > 100 µM | GI50 (TK-10 renal): 22.7 µM | TGI (TK-10 renal): 62 µM | GI50 (SK-MEL-28 melanoma): > 100 µM | TGI (SK-MEL-28 melanoma): > 100 µM | GI50 (MDA-MB-435): > 100 µM | TGI (MDA-MB-435): > 100 µM | GI50 (MALME-3M melanoma): 36.7 µM | TGI (MALME-3M melanoma): > 100 µM | GI50 (NCI-H23 lung): 1.78 µM | TGI (NCI-H23 lung): 19.2 µM | GI50 (SK-MEL-5 melanoma): > 100 µM | TGI (SK-MEL-5 melanoma): > 100 µM

O=C(/C=C/c1ccc(F)cc1)c1nc2ccccc2n1Cc1ccc(F)cc1
GI50 (NCI-H226 lung): 5.79 µM | TGI (NCI-H226 lung): > 100 µM | GI50 (CAKI-1 renal): 2.26 µM | TGI (CAKI-1 renal): > 100 µM | GI50 (EKVX NSCLC): 3.48 µM | TGI (EKVX NSCLC): > 100 µM | GI50 (HT29 colon): 2.33 µM | TGI (HT29 colon): 4.93 µM | GI50 (OVCAR-4 ovarian): 4.3 µM | TGI (OVCAR-4 ovarian): > 100 µM | GI50 (CCRF-CEM leukemia): 2.26 µM | TGI (CCRF-CEM leukemia): 7.46 µM | GI50 (BT-549 breast): 2.6 µM | TGI (BT-549 breast): 8.56 µM | GI50 (HCT-116 colon): 1.86 µM | TGI (HCT-116 colon): 4.46 µM | GI50 (MDA-MB-231 breast): 2.25 µM | TGI (MDA-MB-231 breast): 5.59 µM | GI50 (LOX IMVI melanoma): 1.56 µM | TGI (LOX IMVI melanoma): 3.08 µM | GI50 (RPMI-8226 leukemia): 1.86 µM | TGI (RPMI-8226 leukemia): 5.03 µM | GI50 (SF-295 CNS): 2.59 µM | TGI (SF-295 CNS): 8.27 µM | GI50 (SF-268 CNS): 3.33 µM | TGI (SF-268 CNS): > 100 µM | GI50 (A498 renal): > 100 µM | TGI (A498 renal): > 100 µM | GI50 (SR leukemia): 1.86 µM | TGI (SR leukemia): 6.01 µM | GI50 (HOP-92 NSCLC): 2.56 µM | TGI (HOP-92 NSCLC): 57.9 µM | GI50 (PC-3 prostate): 3.63 µM | TGI (PC-3 prostate): > 100 µM | GI50 (MDA-MB-468 breast): 2.19 µM | TGI (MDA-MB-468 breast): 6.05 µM | GI50 (SK-OV-3 ovarian): 15.5 µM | TGI (SK-OV-3 ovarian): > 100 µM | GI50 (HOP-62 NSCLC): 3.2 µM | TGI (HOP-62 NSCLC): 17.6 µM | GI50 (M14 melanoma): 2.82 µM | TGI (M14 melanoma): > 100 µM | GI50 (T-47D breast): 3.13 µM | TGI (T-47D breast): > 100 µM | GI50 (SK-MEL-2 melanoma): 2.35 µM | TGI (SK-MEL-2 melanoma): 6.17 µM | GI50 (DU-145 prostate): 3.48 µM | TGI (DU-145 prostate): > 100 µM | GI50 (MCF7 breast): 1.62 µM | TGI (MCF7 breast): > 100 µM | GI50 (IGROV1 ovarian): 3.03 µM | TGI (IGROV1 ovarian): > 100 µM | GI50 (HCC-2998 colon): 2.1 µM | TGI (HCC-2998 colon): 4.71 µM | GI50 (HL-60(TB) leukemia): 1.73 µM | TGI (HL-60(TB) leukemia): 4.81 µM | GI50 (UACC-62 melanoma): 2.02 µM | TGI (UACC-62 melanoma): 7.09 µM | GI50 (K-562 leukemia): 2.68 µM | TGI (K-562 leukemia): > 100 µM | GI50 (MOLT-4 leukemia): 2.06 µM | TGI (MOLT-4 leukemia): 6.04 µM | GI50 (UACC-257 melanoma): 3.1 µM | TGI (UACC-257 melanoma): > 100 µM | GI50 (RXF 393 renal): 1.59 µM | TGI (RXF 393 renal): 3.4 µM | GI50 (A549 NSCLC): 3.92 µM | TGI (A549 NSCLC): > 100 µM | GI50 (SNB-75 CNS): 1.11 µM | TGI (SNB-75 CNS): 6.44 µM | GI50 (SN12C renal): 3.64 µM | TGI (SN12C renal): > 100 µM | GI50 (HS 578T breast): 2.58 µM | TGI (HS 578T breast): 20.4 µM | GI50 (TK-10 renal): 2.97 µM | TGI (TK-10 renal): > 100 µM | GI50 (MALME-3M melanoma): 2.61 µM | TGI (MALME-3M melanoma): 9.59 µM | GI50 (NCI-H23 lung): 2.88 µM | TGI (NCI-H23 lung): 14.1 µM | GI50 (SK-MEL-5 melanoma): 2.63 µM | TGI (SK-MEL-5 melanoma): 9.85 µM

Reference: PubChem BioAssay (NCI)
